Source: ChEMBL document CHEMBL1157539, “Thousands of chemical starting points for antimalarial lead identification” (Nature, 2010)
Values joined by “and” are separate entries in the source; they are usually repeats but may differ in a detail not shown here. Identical values can stand only once.

Tested on: Plasmodium falciparum
Assay: GSK_TCMDC: Inhibition of Plasmodium falciparum 3D7 in whole erythrocytes, using parasite LDH activity as an index of growth.
Type: functional, organism-based
Conditions: not given

Row | Structure (SMILES) | XC50
1 | O=C(/C=C/c1c(Cl)cccc1Cl)NC1CCC(CN2CCC(c3c[nH]c4ccccc34)CC2)CC1 (centres undefined) | 0.814 µM and 0.373 µM
2 | Cc1[nH]c2cc(F)ccc2c(=O)c1Cc1ccc(Cl)cc1.Cc1[nH]c2cccc(F)c2c(=O)c1Cc1ccc(Cl)cc1 | 0.232 µM

Same assay, conditions: Plasmodium falciparum, 3D7

Row | Structure (SMILES) | XC50
3 | Cc1ccc(NC(=O)Nc2ccc(Cl)cc2)cc1-c1cccc(C(=O)Nc2ccc(F)cc2)c1 | 0.735 µM
4 | COc1ccc2ccccc2c1CCCCN1CCN(CC(c2ccc(F)cc2)N2CCC(N3CCCC3)CC2)CC1 (centres undefined) | 0.619 µM
5 | COc1ccc(CNCc2ccc(F)cc2)cc1-c1cccc(S(=O)(=O)NCCN2CCCC2)c1 | 0.805 µM
6 | COc1ccc2nc3cc(Cl)ccc3c(NCCN(C)C)c2c1 | 0.188 µM
7 | O=C(Nc1ccc(OC2CCN(Cc3ccccc3)CC2)c(Cl)c1)c1cccs1 | 0.312 µM
8 | COc1cc(CNCCCCCCNCc2cc(OC)cc3ccccc23)c2ccccc2c1 | 0.59 µM
9 | COc1ccc(-n2ncc(C(=O)N3CCC4(C3)C(=O)N(c3ccccc3)c3ccccc34)c2C)cc1 (centres undefined) | 0.932 µM
10 | COc1cc2[nH]c(-c3ccc(O)cc3)c(C)c(=O)c2c(OC)c1OC | 0.717 µM
11 | CC12CN3CC(C)(CN(C1)C3c1cc(Br)ccc1O)C2O (centres undefined) | 0.228 µM
12 | CC(C)(C)Oc1ccc(C[C@@H]2NC3(C(=O)N(Cc4ccc(Cl)c(Cl)c4)c4ccccc43)C3C(=O)N(c4ccc(Br)cc4)C(=O)C32)cc1 (some centres undefined) | 1.04 µM
13 | CCC(=O)c1ccc(-c2ccc(=O)n(CC(=O)N(CCN(CC)CC)Cc3ccc(-c4ccc(C(F)(F)F)cc4)cc3)n2)cc1 | 0.715 µM
14 | Oc1cc(-c2nc(C3(CNCc4ccc(Cl)cc4)CCCCC3)[nH]c2-c2ccncc2)ccc1Cl | 0.125 µM
15 | CCCCCCc1c(C)nc2cc(OC)ccc2c1O | 0.119 µM
16 | COc1cccc(C(=O)Nc2ccc(Nc3nc(C)cc(N(C)C)n3)cc2)c1OC | 1.02 µM
17 | COc1ccc(CN2CCCN(Cc3cccc(NC(=O)c4ccc5ccccc5c4)c3)CC2)cc1 | 1 µM
18 | c1cc(CNCC2CCN(CC3CCCCC3)CC2)cc(-n2ccnc2)c1 | 0.545 µM
19 | CCN(CC)c1ccc2nc(N)nc(N)c2c1 | 0.0739 µM
20 | CC(Cc1ccc(C(=O)OC(c2ccccc2)c2ccccc2)cc1)NCC(O)c1ccccc1 (centres undefined) | 0.178 µM
21 | CC=CC(=O)N1CCN(c2nccc(-c3ccc(C(C)(C)C)cc3)n2)CC1 | 1.08 µM
22 | CCOc1c(CCNCCCCNCCc2ccc3ccccc3c2OCC)ccc2ccccc12 | 0.596 µM
23 | O=C(NCCCCN1CCC(c2ccc3c(c2OCCO)CCCC3)CC1)c1sc(-c2ccc(C(F)(F)F)cc2)nc1CO | 1.05 µM
24 | COc1ccccc1C(C)NCC(=O)Nc1cc(C(F)(F)F)ccc1Cl (centres undefined) | 0.778 µM
25 | Cc1cc(N[C@@H](CC(C)C)C(=O)NCc2cccc(F)c2)nc(Nc2ccccc2)n1 | 1.09 µM

Row | Structure (SMILES) | XC50
26 | COc1nc2c(CCN3CCC(NCc4ccc5c(c4)NC(=O)CO5)CC3)c(Cl)cnc2cc1F | 0.771 µM
27 | CC(=O)Nc1ccc(C(=O)Nc2cccc(-c3cccc(-c4nc5cccc(C)c5[nH]4)c3)c2)cn1 | 0.0647 µM
28 | COc1ccc(CNC2CCN(C)CC2)cc1-c1ccc(S(=O)(=O)NCCc2ccccn2)c(C)c1 | 1.15 µM
29 | COc1cc2nc(N3CCC(CNC(=O)c4ccc(-c5ccc(C#N)cc5)cc4)CC3)nc(N)c2cc1OC | 0.796 µM
30 | CCC1=C(CC2NCCc3cc(OC)c(OC)cc32)CC2c3cc(OC)c(OC)cc3CCN2C1 (centres undefined) [DIHYDROEMETINE] | 0.312 µM
31 | Fc1ccc2[nH]c(-c3cccc(-c4ccc(CNCc5ccccc5)cc4)c3)nc2c1 | 0.266 µM
32 | Cc1cc(N[C@@H](Cc2ccccc2)C(=O)NCCc2ccccc2)nc(NCCc2ccccc2)n1 | 0.85 µM
33 | O=C(Nc1ccc(-c2ccc(-c3nc4cc(C(F)(F)F)ccc4[nH]3)s2)cc1)c1c[nH]cn1 | 0.67 µM
34 | c1ccc(-c2[nH]c3ccccc3c2CN2CCC(N3CCCCC3)CC2)nc1 | 1.21 µM
35 | CCC(=O)N(c1ccccc1)C1CCN(CCCC(NC(=O)c2cc(C(F)(F)F)cc(C(F)(F)F)c2)c2ccc(Cl)c(Cl)c2)CC1 (centres undefined) | 0.803 µM
36 | O=C(Nc1ccc(Cl)cc1)OCCn1nnnc1C(c1ccc(Cl)cc1)N1CCOCC1 (centres undefined) | 1.18 µM
37 | COc1ccc(C(C(=O)NC2CCN(C[C@H](O)c3ccnc4ccc(OC)cc34)CC2)N2CCN(c3ccc(F)cc3)CC2)cc1 (some centres undefined) | 0.214 µM
38 | O=C(c1ccc(Br)o1)N1N=C(c2cccs2)CC1c1ccc(Br)cc1 (centres undefined) | 0.513 µM
39 | CC(=NO)C1=C(O)C(c2ccccc2)N(c2ccccc2)C1=O (centres undefined) | 0.701 µM
40 | O=C(Nc1ccccc1)N(Cc1ccc(-c2cccc(CNC3CCCC3)c2)cc1)C1CCN(Cc2ccccc2)CC1 | 0.427 µM
41 | Clc1cccc(Cl)c1CCNCC1CCN(CC2CCCCC2)CC1 | 0.212 µM
42 | Cc1ccc(CON2C(=N)N=C(N)NC2(C)C)cc1C | 0.0032 µM
43 | COc1ccc2nccc([C@@H](O)CN3CCC(NC(=O)c4ccc(-c5ccccc5)s4)CC3)c2c1 | 0.31 µM
44 | Cc1c(C)c2c(c(C)c1O)CC[C@@](C)(C(=O)N1CCC(CCN3CCC(c4c[nH]c5ccccc45)CC3)CC1)O2 | 0.666 µM
45 | COc1ccc(Nc2ncc3c(-c4ccc(NC(=O)c5cccc(C(F)(F)F)c5)cc4)c[nH]c3n2)cc1OC | 1.03 µM
46 | O=C(Nc1ccc(Cl)c(Cl)c1)C1CCC(=O)N1[C@@H](Cc1ccccc1)C(=O)NCCc1ccc(Cl)cc1 (some centres undefined) | 1.1 µM
47 | CC1CN(Cc2ccc(-c3ccc(-c4nc5cc(F)ccc5[nH]4)s3)cc2)CC(C)O1 (centres undefined) | 0.876 µM
48 | Cc1c(OC(C)C)nc2ccccc2c1C(=O)N[C@H](c1cccc(F)c1)C1CC1 | 1.09 µM

Row | Structure (SMILES) | XC50
49 | COC(=O)C(c1ccc(NC(=O)[C@H](CC(C)C)NC(=O)OC(C)(C)C)cc1)c1ccc(NC(=O)[C@H](CC(C)C)NC(=O)OC(C)(C)C)cc1 | 0.348 µM
50 | CCc1ccc(S(=O)(=O)Nc2ccc(CCN(C)C3CCN(C)CC3)cc2)cc1 | 1.06 µM
51 | O=C(C=Cc1ccc(Cl)c(Cl)c1)NCCCCCN1CCC(CCNS(=O)(=O)c2ccc(Br)cc2)CC1 | 1.12 µM
52 | COCCCNC(=N)c1ccc(NC(=O)c2ccc(C(=O)Nc3ccc(C(=N)NCCCOC)cc3)cc2)cc1 | 0.045 µM
53 | OC(CN1CCN(Cc2ccccc2)CC1)Cn1c(-c2ccccc2)c(-c2ccccc2)c2ccccc21 (centres undefined) | 0.711 µM
54 | C=CCOc1cccc2c1CCN(CCN1CCC(NC(=O)c3ccc(-c4ccc(Cl)cc4)cc3)CC1)C2 | 0.673 µM
55 | Nc1cc(/C=C/c2ccc([N+](=O)[O-])s2)nc2ccccc12 | 0.76 µM
56 | Nc1c2c(nc3ccc(C(=O)Nc4cc(I)c(O)c(I)c4)cc13)CCCC2 | 1.01 µM
57 | COc1cc2nc(N3CCC(c4ccccc4)CC3)nc(NCc3ccc(=O)[nH]c3)c2cc1OC | 0.755 µM
58 | COc1ccccc1CCNc1nc(C)cc(N[C@@H](CC(C)C)C(=O)Nc2ccccc2)n1 | 1.28 µM
59 | CCOC(=O)c1cccc(NC(=N)Nc2nc(C)cc(NCCc3ccccc3)n2)c1 | 0.684 µM
60 | CCN(CC)CCCCNc1cc(-c2[nH]c(-c3c(Cl)cccc3Cl)nc2-c2ccc3cc(OC)ccc3c2)ccn1 | 0.958 µM
61 | Cc1cccc2sc(N(CCCn3ccnc3)C(=O)C=Cc3cccs3)nc12 | 1.28 µM
62 | CCNc1cc(C(=O)N[C@@H](Cc2ccccc2)[C@H](O)CNC(C)CC(C)C)c(F)c(N2CCCCS2(=O)=O)c1 (some centres undefined) | 1.12 µM
63 | COc1ccc(NC(=O)Nc2ccc(-c3ccc(-c4nc5cccc(C)c5[nH]4)s3)cc2)cc1 | 0.175 µM
64 | COc1ccc2ncc(F)c(CCN3CCC(NCc4cc5c(cn4)OCCS5)CC3)c2c1 | 0.776 µM
65 | CCN1CCC(N(CCCCCCCCc2ccc(C(F)(F)F)cc2)C(=O)Cn2c(CCc3cccc(F)c3F)cc(=O)c3ccccc32)CC1 | 1.2 µM
66 | CO/C(=C\C=C\c1cc2cc(Cl)c(Cl)cc2[nH]1)C(=O)NCCCN1CC(C)N(C)CC1C (centres undefined) | 1.13 µM
67 | COc1ccccc1-c1cccc(CNC2CCN(CC3Cn4c(=O)ccc5ccc(F)c3c54)CC2)c1 (centres undefined) | 1.38 µM
68 | Cc1cc(-c2ccc(Cl)cc2)c2c(N)c(C(=O)Nc3ccc(F)cc3)sc2n1 | 0.818 µM
69 | O=C(/C=C/c1ccc(Cl)c(Cl)c1)NC1CCN(CCCNC(=O)c2cccc(Cl)c2)CC1 | 0.659 µM
70 | O=C(Nc1ccc(Oc2cccnc2)cc1)C1CCN(Cc2cc(Cl)ccc2O)CC1 | 1.35 µM
71 | COc1cc(C(=O)N2COCC(CCCN3CCC(N4CCCC4)CC3)(c3ccc(Cl)c(Cl)c3)C2)cc(OC)c1OC (centres undefined) | 0.785 µM

Row | Structure (SMILES) | XC50
72 | CC(=O)Nc1ccc(CN(Cc2ccc(F)cc2)Cc2cccc(Oc3ccccc3)c2)cc1 | 0.943 µM
73 | CCCCOc1cc2c(cc1OCC)C(C=Cc1ccc(Cl)cc1Cl)=NCC2 | 0.403 µM
74 | O=C(NCc1ccc(Cl)c(Cl)c1)c1ccc(C2CCN(Cc3ccc4[nH]cnc4c3)CC2)cc1 | 0.957 µM
75 | COc1ccc2cc(-c3nc(-c4c(Cl)cccc4Cl)[nH]c3-c3ccnc(NCCCN4CCN(C)CC4)c3)ccc2c1 | 0.708 µM
76 | NCc1ccc(CNCc2cccc(-c3ccc(-c4nc5ccccc5[nH]4)cc3)c2)cc1 | 0.717 µM
77 | CC(C)(C)c1ccc(NC(=O)N[C@@H]2CCN(c3ccnc4ccccc34)C2)cc1 | 0.35 µM
78 | COC(=O)[C@@H](NC(=O)[C@@H](Nc1ccc(C#N)c2ccccc12)C(C)(C)C)c1ccc(O)cc1 | 0.777 µM
79 | CC1(C)CN(CCC2CCC(NC(=O)/C=C/c3ccccc3F)CC2)Cc2ccc(C#N)cc21 (centres undefined) | 1.11 µM
80 | Cc1ccccc1OCCCc1c(C)nc(N)nc1N | 0.277 µM
81 | CC(CN1CCN(C)CC1)C(=O)Nc1ccc(-c2cccc(-c3nc4ccccc4[nH]3)c2)cc1 (centres undefined) | 0.566 µM
82 | Nc1nc(Nc2cccc(O)c2)nc2ccccc12 | 0.791 µM
83 | CC(C)c1ccc2c(c1)C(=O)c1ccc(C(=O)O)cc1S2(=O)=O | 0.472 µM
84 | Cc1[nH]c2cc(F)ccc2c(=O)c1Cc1ccc(Cl)cc1.Cc1[nH]c2cccc(F)c2c(=O)c1Cc1ccc(Cl)cc1 | 0.348 µM
85 | CC(CN(C)C)C(=O)Nc1cccc(-c2ccc(-c3nc4cc(C(F)(F)F)ccc4[nH]3)cc2)c1 (centres undefined) | 0.248 µM
86 | COc1ccc2nccc([C@@H](O)CN3CCC(NC(=O)c4cccc(C(=O)c5ccccc5)c4)CC3)c2c1 | 0.685 µM
87 | NCc1cccc(-c2ccc(CNC3CCN(Cc4ccccc4)CC3)cc2)c1 | 1.7 µM
88 | COc1cc2nc(N3CCN(C(=O)c4cccc(I)c4)CC3)nc(N)c2cc1OC | 1.32 µM
89 | Cc1cccc2nc(-c3cccc(-c4cccc(NC(=O)Nc5cccc(C#N)c5)c4)c3)[nH]c12 | 0.104 µM
90 | Cc1cccc2nc(-c3ccc(-c4cccc(CNCc5ccccc5)c4)s3)[nH]c12 | 0.741 µM
91 | CN(C)C(=O)CC(=O)NCc1c(Cl)cccc1Cl | 0.203 µM
92 | O=C1C[C@@H]([S+]([O-])Cc2nccs2)N1CCOCCCCCCc1ccc(Cl)cc1 (some centres undefined) | 1.02 µM
93 | O=C(/C=C/c1ccc(Cl)c(Cl)c1)N1CCN(C(=O)Nc2ccc(C(F)(F)F)cc2)CC1 | 0.666 µM
94 | Cc1noc(C)c1-c1cccc(CNCc2cccc(-c3cccc(-c4nc5cc(F)ccc5[nH]4)c3)c2)c1 | 0.176 µM
